{"source": "paper PMC8750417", "about": "“Intracellular Amplifiers of Reactive Oxygen Species Affecting Mitochondria as Radiosensitizers” (Cancers, 2021)", "system": "Jurkat cells", "test": "Total intracellular ROS (CM-DCFH-DA), Jurkat", "assay_type": "cell-based, human", "details": "1 h", "experimental": "Monitoring total intracellular ROS (tROS)\nA2780 cells were seeded in RPMI 1640 medium containing 5% FBS, 1% L-glutamine and 1% penicillin/streptomycin in a 24-well microtiter plate (total volume 0.5 mL) at a density of 200 cells/µL one day before the experiment. On the day of the experiment, the cells were washed twice with DPBS buffer and the medium was replaced with HBSS (Hanks' Balanced Salt solution, 500 μL). CM-DCFH-DA (5-(6-)chloromethyl-2',7'- dichlorodihydrofluorescein diacetate, Thermo- Fisher) solution (0.1 mM in DMSO, 5 μL) was added (final concentration 1 µM) and the cells were incubated in the dark chamber filled with CO2 (5%) at 37 °C for 15 min. […] Finally, the fluorescence of live cells (λex = 488 nm, λem = 525 nm) in the suspensions was determined by using flow cytometry (Figure 4A, 5C).\nIntracellular ROS release in Jurkat cells was monitored analogously (Figure S58).\nFigure S58. […] OY-axis “Fluorescence”: the increase of the mean fluorescence (λex = 488 […]"}
{"smiles": "CC1(C)OB(c2ccc(COC(=O)N(Cc3cn(Cc4ccc(Cn5cc(Cc6ccccc6)nn5)cc4)nn3)[c-]3cccc3)cc2)OC1(C)C.[Fe+2].c1cc[cH-]c1", "note": "[2c]", "values": [{"measurement": "total ROS (tROS) vs background", "result": "significantly higher than its background levels"}]}
